Test results reported in patent publication US20220380430A1, “Non-Transgenic Functional Rescue of Neuropeptides” (Worcester Polytechnic Institute, priority 2021, published 2022).

How the values were obtained:
trh-1 mutant worms = assay: Size comparison (body volume) after rescue-by-feeding; assay type: in vivo, C. elegans; details: for restoration of body volume: trh-1 lof animals fed E. coli expressing peptide, in words; for Relative Body Volume: trh-1 mutant animals fed peptide, N2 set as 100%
Description: All animals were maintained on bacterial lawns of OP50 E. coli, at 20° C., on NGM agar plates until the start of experiments. Mutant or control animals were transferred onto lawns of DH5α E. coli expressing either scramble peptide or the rescue peptide-of-interest on NGM plates containing […] AMP and 1 mM IPTG. Animals were reared on the peptide-expressing lawns for at least 48 hours at 20° C. before assaying for rescue of mutant phenotype at the appropriate developmental stage.
The body morphology different of trh-1 mutants was compared to wild-type worms by body volume measurements. Wild-type (N2) and trh-1 animals were synchronized by embryonic starvation following alkaline hypochlorite protocols. Ten gravid hermaphrodites from OP50 E. coli plates were picked into 30 μL drops of alkaline hypochlorite solution (20% sodium hypochlorite, 500 mM KOH). Two drops were placed on either side of an unseeded NGM plate, resulting in 20 animals per plate. Plates were then incubated for 24 hours at 20° C. before L1 larval animals washed with 1 mL M9 (22 mM KH2PO4, 42.25 mM Na2HPO4, 85.5 mM NaCl, 1 mM MgSO4) per unseeded NGM plate. Allow L1 worms to settle into pellet before removing M9 supernatant. Repeat washing step 2 more times. Plate worm pellet onto NGM with […] AMP and 1 mM IPTG plates containing 75 μL peptide lawns.
After at 48 hours at 20° C., animals were recorded using a Basler acA2500-14 uM camera using WormLab software (WormLab 4.1; MBF Bioscience, 2017) for 65 seconds. Worm length, width, and area were calculated within the WormLab software (FIG. 5C-FIG. 5H). As the WormLab worm width metric is an average of cross-sections throughout the length of each worm, this was used to calculate the volume of a worm as a cylinder, with the Volume=π*(0.5*width)^2*length (FIG. 2A-FIG. 2B, FIG. 5A-FIG. 5B).
Two to four plates were recorded per day for at least three days to generate data sets. Control plates of N2 and trh-1 animals raised on the scramble peptide were grown alongside every rescue feeding. Each “worm track” was considered an n=1. Tracks were excluded if (1) worm tracks less than 10 seconds, or (2) worms were further than two standard deviations from the mean metric. Following tests for normality, comparisons were made using either Mann-Whitney tests for direct comparisons between N2 and trh-1 animals reared on OP50, or Kruskal-Wallis non-parametric ANOVAs and Dunn's multiple comparisons tests for animals raised on peptide feeding strains. Comparisons were made for metrics: length (FIG. 5C-FIG. 5D), width (FIG. 5e-FIG. 5F), area (FIG. 5G-FIG. 5H), and volume (FIG. 2A-FIG. 2B, FIG. 5A-FIG. 5B).

C. elegans = assay: Single worm attraction assay (SWAA) of ascarosides; assay type: in vivo; details: males; in words
Description: The spot retention assay was adapted to allow for better characterization of individual worm behavior and robust interrogation of attraction to small molecules. The attractiveness of 1 μM ascr #8 (FIG. 11A) were compared across multiple strains of C. elegans (the wild-type N2 strain, the high incidence of male him-5 and him-8 strains, and the chemosensory cilia defective osm-3), using the novel behavioral assay, the single worm attraction assay (SWAA) (FIG. 11A). In this assay, individual animals were placed directly into the spot of the ascaroside cue (A) while simultaneously removing any potential of male-male contact. […] Likewise, a vehicle control (V) is also included, to account of any changes in dwell time that are driven by the components of the vehicle. The outer forty wells of a 48-well suspension culture plate (Olympus Plastics, Cat #: 25-103) were seeded with 200 μL of standard NGM agar. To prepare the plates for the assay, they were acclimated to room temperature, at which point each well was seeded with 65 μL of OP50 E. coli. The assay plates were then transferred to a 37° C. incubator with the lid tilted for 4 h to allow the bacterial culture to dry on the agar. Once the bacterial culture dried, the lid was replaced the plate was stored at 20° C. until used in the assay. Fifty to sixty L4 worms were segregated by sex and stored at 20° C. for 5 h to overnight to be assayed as young adults. 0.8 μL of either vehicle control or ascaroside #8 was placed in the center of the well corresponding to that condition within the quadrant being tested, following a random block design (FIG. 11A). A single worm was placed in each of the 10 wells to be assayed, and the plate was transferred to a light source and camera and recorded for 15 m. […] Raw dwell time values were calculated by subtracting the time a worm exited the cue (center of the well in spatial controls), from the time it entered, as in the SRA. This was determined per visit, and the average dwell time was calculated for each animal in the quadrant. Averages of the four-quadrant means were determined per plate, and a minimum of five plates were assayed per strain/condition. The mean raw dwell time across five plates was calculated and used for statistical analyses and graphical display. […] An “attractive visit” was first determined for each plate as any visit greater than two standard deviations above the mean dwell time within the vehicle control for that plate. Any individual visit meeting this threshold was scored as a “1”, and any below was scored a “0”. The percent visits per-worm that were attractive was determined, and the average of each quadrant taken. […] The average percent of attractive visits across five plates was calculated and used for statistical analyses and graphical display.

| Compound | restoration of body volume (trh-1 mutant worms) | Relative Body Volume (trh-1 mutant worms) [%] | male attraction in the SWAA (C. elegans) |
| --- | --- | --- | --- |
| GRELF-NH2 [TRH-1A] | complete restoration of wild-type body volume | ~100 | – |
| C[C@H](CCCC/C=C/C(=O)O)O[C@@H]1O[C@@H](C)[C@H](O)C[C@H]1O [ascr #3] | – | – | maintains its ability to attract males in the SWAA |
| ANELF-NH2 [TRH-1B] | complete restoration of wild-type body volume | ~100 | – |
